SMILES strings stand for the structures. Where only a bound is given, the exact number is not on record here.

In assay [1] the target is T1, Histone deacetylase 1 (Homo sapiens, UniProt Q13547). Kind of assay: Inhibition of HDAC1 (unknown origin).
Assay [2] relates to DU-145. Kind of assay: Cytotoxicity against human DU-145 cells assessed as cell growth inhibition. In kind it is functional, cell-based.
The target of assay [3] is T2, Protein deacetylase HDAC6 (Homo sapiens, UniProt Q9UBN7).
T2 sequence (Q9UBN7 whole entry): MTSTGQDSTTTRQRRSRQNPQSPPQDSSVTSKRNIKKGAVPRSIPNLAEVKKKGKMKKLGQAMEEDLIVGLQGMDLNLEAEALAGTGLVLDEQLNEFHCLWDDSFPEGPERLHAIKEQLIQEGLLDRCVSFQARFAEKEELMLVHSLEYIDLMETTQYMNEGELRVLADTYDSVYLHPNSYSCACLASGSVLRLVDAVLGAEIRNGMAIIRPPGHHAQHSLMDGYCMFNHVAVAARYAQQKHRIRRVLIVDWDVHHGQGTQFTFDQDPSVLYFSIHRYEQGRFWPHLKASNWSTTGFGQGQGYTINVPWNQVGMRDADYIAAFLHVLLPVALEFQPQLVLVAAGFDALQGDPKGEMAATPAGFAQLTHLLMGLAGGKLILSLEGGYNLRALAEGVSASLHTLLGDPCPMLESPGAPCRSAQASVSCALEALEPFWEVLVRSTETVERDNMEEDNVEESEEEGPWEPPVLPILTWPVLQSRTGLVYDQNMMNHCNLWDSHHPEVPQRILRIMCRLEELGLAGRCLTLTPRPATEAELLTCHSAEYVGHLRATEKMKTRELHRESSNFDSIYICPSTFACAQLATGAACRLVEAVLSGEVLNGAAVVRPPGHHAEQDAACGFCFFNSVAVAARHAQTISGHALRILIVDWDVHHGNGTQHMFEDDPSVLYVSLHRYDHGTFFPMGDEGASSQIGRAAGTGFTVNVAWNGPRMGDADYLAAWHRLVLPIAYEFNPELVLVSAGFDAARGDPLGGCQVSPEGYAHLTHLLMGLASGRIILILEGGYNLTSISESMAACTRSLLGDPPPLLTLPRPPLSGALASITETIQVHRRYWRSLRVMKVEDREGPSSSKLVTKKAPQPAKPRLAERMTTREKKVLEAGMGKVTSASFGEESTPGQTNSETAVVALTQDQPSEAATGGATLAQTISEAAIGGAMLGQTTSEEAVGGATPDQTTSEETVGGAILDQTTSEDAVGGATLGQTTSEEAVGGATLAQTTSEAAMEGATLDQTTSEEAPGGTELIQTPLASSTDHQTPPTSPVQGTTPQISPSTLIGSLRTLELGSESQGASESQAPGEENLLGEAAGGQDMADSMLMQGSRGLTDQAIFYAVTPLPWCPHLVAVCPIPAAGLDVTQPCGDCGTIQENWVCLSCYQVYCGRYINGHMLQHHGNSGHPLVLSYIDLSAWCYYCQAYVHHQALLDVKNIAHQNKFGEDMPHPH
Kind of assay: Inhibition of HDAC6 (unknown origin).

Assay [4] has as its target T3, Histone deacetylase 8 (Homo sapiens, UniProt Q9BY41).
T3 sequence (Q9BY41 whole entry): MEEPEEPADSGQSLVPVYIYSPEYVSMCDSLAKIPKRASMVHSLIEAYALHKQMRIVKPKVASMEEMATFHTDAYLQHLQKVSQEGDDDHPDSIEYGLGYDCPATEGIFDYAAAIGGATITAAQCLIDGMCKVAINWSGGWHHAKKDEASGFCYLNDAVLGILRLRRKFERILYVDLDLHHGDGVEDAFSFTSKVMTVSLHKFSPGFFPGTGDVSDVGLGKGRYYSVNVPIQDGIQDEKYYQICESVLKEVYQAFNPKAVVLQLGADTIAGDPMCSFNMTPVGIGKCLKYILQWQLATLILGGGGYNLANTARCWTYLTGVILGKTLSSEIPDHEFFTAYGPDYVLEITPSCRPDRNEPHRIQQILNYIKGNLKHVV
Kind of assay: Inhibition of HDAC8 (unknown origin).

The target in assay [5] is 72 kDa type IV collagenase (Homo sapiens, UniProt P08253). Kind of assay: Inhibition of MMP2 (unknown origin) using chromogenic substrate incubated for 1 hr followed by substrate addition measured for 30 mins by microplate photometry.
The target in assay [6] is T3, Histone deacetylase 8. Kind of assay: Inhibition of recombinant human HDAC8 using Fluor-de-lys substrate by fluorescence based microplate reader analysis.
The target of the next assay is Histone deacetylase 4 (Homo sapiens, UniProt P56524). Kind of assay: Inhibition of HDAC4 (unknown origin).
Sequence of Histone deacetylase 4 (P56524 whole entry): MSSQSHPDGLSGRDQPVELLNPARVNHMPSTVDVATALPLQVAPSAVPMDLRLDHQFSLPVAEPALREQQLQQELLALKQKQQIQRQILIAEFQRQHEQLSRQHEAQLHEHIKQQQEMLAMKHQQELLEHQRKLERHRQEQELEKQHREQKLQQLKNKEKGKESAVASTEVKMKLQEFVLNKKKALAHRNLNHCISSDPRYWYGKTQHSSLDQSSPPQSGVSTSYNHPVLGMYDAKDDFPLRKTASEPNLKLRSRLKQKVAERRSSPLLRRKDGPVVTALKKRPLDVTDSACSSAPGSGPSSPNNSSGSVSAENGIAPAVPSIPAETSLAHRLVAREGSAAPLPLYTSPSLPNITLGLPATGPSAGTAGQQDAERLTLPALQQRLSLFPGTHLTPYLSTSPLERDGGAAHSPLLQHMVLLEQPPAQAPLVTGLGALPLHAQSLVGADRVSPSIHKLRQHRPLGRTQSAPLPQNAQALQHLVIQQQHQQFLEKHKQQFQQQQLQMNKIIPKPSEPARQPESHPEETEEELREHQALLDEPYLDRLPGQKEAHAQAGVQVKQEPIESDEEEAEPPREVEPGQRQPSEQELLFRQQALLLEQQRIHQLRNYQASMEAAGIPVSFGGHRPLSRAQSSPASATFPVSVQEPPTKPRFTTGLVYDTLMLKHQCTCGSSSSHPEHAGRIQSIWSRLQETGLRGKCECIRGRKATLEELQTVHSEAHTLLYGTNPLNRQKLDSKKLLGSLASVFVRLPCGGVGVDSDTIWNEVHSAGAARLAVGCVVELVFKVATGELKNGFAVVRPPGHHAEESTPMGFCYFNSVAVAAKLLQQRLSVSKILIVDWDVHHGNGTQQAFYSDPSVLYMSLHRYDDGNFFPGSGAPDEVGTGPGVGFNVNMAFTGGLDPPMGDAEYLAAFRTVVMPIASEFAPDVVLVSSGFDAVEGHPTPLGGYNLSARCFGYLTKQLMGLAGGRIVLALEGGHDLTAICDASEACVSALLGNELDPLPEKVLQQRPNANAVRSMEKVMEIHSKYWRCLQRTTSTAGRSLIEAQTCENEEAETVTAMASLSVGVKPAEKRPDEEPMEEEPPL
Another assay concerns the target Histone deacetylase 2 (Homo sapiens, UniProt Q92769). Kind of assay: Inhibition of HDAC2 (unknown origin).
Assay [7] deals with Panel NCI-60 (60 carcinoma cell lines). Kind of assay: Cytotoxicity against human Panel NCI-60 (60 carcinoma cell lines) cells assessed as cell growth inhibition. The format is functional, cell-based.
A further assay concerns the target Histone deacetylase 5 (Homo sapiens, UniProt Q9UQL6). Kind of assay: Inhibition of HDAC5 (unknown origin).
Another assay has as its target Histone deacetylase 3 (Homo sapiens, UniProt O15379). Kind of assay: Inhibition of HDAC3 (unknown origin).
Assay [8] concerns the target T4, cGMP-specific 3',5'-cyclic phosphodiesterase (Homo sapiens, UniProt O76074). Kind of assay: Inhibition of N-terminal GST-tagged full-length recombinant human PDE5A1 (1 to 875 residues) expressed in Sf9 insect cells using cGMP as substrate incubated for 30 mins by HTRF assay.
Assay [9] concerns the target T1, Histone deacetylase 1. Kind of assay: Inhibition of C-terminal 6xHis/FLAG-tagged full-length recombinant human HDAC1 (1 to 482 residues) expressed in Sf9 insect cells using fluorogenic substrate incubated for 30 mins by fluorescence based plate reader analysis.
The target of assay [10] is T2, Protein deacetylase HDAC6. Kind of assay: Inhibition of full-length recombinant human HDAC6 (1 to 1215 residues) expressed in Sf9 insect cells using fluorogenic substrate incubated for 30 mins by fluorescence based plate reader analysis.
Assay [11] has as its target T5, High affinity cGMP-specific 3',5'-cyclic phosphodiesterase 9A (Homo sapiens, UniProt O76083). Kind of assay: Inhibition of N-terminal GST-tagged full-length human PDE9A2 expressed in baculovirus infected Sf9 insect cells using cGMP as substrate incubated for 30 mins by HTRF assay.
The target in assay [12] is T1, Histone deacetylase 1. Kind of assay: Inhibition of full-length recombinant human HDAC1 expressed in baculovirus infected Hi-5 insect cells using AcLys-Tyr-Lys(e-acetyl)-AMC as substrate incubated for 24 hrs by enzymatic assay.
Assay [13] deals with DU-145. Kind of assay: Antiproliferative activity against human DU-145 cells assessed as cell growth inhibition incubated for 48 hrs by MTT assay. In kind it is functional, cell-based. As to conditions: DU-145, 48 h.
Another assay relates to HepG2. Kind of assay: Antiproliferative activity against human HepG2 cells assessed as cell growth inhibition incubated for 48 hrs by MTT assay. The format is functional, cell-based. As to conditions: HepG2, 48 h. On the technique in general: Tetrazolium dyes change colour on reduction, which living cells bring about.
For a further assay, the system named is K562. Kind of assay: Antiproliferative activity against human K562 cells assessed as cell growth inhibition incubated for 48 hrs by MTT assay. The format is functional, cell-based. As to conditions: K562, 48 h.
The target of assay [14] is Protein-glutamine gamma-glutamyltransferase (Homo sapiens, UniProt P21980). Kind of assay: Inhibition of recombinant human TG2 using N-Cbz-Glu(gamma-p-nitrophenylester) as substrate measured for 10 mins by absorbance based microplate reader analysis.
Sequence of Protein-glutamine gamma-glutamyltransferase (P21980 whole entry): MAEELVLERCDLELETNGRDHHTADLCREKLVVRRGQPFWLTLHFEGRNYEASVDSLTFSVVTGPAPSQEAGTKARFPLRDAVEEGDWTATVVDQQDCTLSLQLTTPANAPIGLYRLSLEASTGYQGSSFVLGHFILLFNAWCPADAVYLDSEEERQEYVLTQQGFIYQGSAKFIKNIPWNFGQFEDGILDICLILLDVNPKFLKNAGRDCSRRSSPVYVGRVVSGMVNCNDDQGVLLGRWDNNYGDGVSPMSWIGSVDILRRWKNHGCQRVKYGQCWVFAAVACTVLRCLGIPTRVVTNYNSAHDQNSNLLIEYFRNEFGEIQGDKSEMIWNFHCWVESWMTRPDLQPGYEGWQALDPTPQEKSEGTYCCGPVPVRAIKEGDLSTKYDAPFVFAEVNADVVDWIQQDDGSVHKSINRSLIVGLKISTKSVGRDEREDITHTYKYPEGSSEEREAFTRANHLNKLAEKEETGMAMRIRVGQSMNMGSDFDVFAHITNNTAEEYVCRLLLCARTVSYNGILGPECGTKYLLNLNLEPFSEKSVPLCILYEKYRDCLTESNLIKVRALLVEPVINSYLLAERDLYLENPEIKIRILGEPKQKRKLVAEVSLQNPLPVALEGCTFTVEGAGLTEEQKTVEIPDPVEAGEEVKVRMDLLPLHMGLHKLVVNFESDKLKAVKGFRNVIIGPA
The subject of another assay is Cortical neurone. Kind of assay: Neuroprotective activity against glutamate-induced mouse primary cortical neurons assessed as neuronal viability incubated for 24 hrs by MTT assay. The format is functional, cell-based.
For assay [15], the target named is T4, cGMP-specific 3',5'-cyclic phosphodiesterase. Kind of assay: Inhibition of PDE5A (unknown origin).
The target in assay [16] is T5, High affinity cGMP-specific 3',5'-cyclic phosphodiesterase 9A. Kind of assay: Inhibition of PDE9 (unknown origin).
Assay [17] is described as follows: Inhibition of PDE5 (unknown origin). Further details: species or system Homo sapiens.
In assay [18] the target is Phosphatidylinositol 4,5-bisphosphate 3-kinase catalytic subunit alpha isoform (Homo sapiens, UniProt P42336). Kind of assay: Inhibition of PI3K-alpha (unknown origin).
Sequence of Phosphatidylinositol 4,5-bisphosphate 3-kinase catalytic subunit alpha isoform (P42336 whole entry, canonical isoform): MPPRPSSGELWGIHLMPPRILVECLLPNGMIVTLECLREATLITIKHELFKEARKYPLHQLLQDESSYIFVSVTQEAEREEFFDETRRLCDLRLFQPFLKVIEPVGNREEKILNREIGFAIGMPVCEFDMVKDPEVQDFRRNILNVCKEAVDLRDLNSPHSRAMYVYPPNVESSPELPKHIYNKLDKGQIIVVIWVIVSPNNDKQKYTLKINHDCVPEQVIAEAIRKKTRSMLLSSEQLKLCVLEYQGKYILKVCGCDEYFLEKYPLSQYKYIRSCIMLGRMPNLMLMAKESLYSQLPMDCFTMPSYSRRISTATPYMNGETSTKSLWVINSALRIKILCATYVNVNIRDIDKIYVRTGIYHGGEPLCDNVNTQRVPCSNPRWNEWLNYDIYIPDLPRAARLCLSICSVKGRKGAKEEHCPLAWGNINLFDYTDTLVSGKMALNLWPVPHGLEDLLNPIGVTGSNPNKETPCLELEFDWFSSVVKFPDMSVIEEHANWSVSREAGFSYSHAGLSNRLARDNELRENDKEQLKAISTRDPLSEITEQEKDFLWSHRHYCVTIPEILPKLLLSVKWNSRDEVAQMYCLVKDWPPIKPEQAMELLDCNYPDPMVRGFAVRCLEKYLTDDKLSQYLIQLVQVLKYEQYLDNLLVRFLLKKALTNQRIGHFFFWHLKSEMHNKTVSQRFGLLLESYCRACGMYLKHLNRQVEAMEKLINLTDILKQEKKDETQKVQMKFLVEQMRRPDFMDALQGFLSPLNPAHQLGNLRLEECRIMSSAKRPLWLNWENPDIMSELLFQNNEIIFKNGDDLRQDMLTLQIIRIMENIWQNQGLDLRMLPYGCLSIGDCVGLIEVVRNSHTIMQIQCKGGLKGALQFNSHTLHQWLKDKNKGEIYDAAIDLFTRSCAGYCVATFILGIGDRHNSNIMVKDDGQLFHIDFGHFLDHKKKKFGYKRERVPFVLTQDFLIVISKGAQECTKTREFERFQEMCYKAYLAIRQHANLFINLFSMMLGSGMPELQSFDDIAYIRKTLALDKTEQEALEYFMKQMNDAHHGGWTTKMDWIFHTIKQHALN

T1 sequence (Q13547 whole entry): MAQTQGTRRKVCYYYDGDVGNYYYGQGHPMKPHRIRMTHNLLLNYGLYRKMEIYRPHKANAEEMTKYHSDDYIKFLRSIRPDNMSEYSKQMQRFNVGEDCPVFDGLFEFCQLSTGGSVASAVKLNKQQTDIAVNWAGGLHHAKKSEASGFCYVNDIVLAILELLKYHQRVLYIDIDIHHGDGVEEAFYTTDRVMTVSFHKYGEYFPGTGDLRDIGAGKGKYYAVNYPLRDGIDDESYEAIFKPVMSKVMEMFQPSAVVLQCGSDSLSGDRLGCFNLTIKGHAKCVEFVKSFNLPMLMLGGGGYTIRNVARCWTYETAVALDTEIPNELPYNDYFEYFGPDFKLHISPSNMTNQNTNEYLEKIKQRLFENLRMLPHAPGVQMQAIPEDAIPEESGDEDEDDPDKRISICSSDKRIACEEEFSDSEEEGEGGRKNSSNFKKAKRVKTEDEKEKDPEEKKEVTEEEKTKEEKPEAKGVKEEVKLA
Sequence of Histone deacetylase 2 (Q92769 whole entry): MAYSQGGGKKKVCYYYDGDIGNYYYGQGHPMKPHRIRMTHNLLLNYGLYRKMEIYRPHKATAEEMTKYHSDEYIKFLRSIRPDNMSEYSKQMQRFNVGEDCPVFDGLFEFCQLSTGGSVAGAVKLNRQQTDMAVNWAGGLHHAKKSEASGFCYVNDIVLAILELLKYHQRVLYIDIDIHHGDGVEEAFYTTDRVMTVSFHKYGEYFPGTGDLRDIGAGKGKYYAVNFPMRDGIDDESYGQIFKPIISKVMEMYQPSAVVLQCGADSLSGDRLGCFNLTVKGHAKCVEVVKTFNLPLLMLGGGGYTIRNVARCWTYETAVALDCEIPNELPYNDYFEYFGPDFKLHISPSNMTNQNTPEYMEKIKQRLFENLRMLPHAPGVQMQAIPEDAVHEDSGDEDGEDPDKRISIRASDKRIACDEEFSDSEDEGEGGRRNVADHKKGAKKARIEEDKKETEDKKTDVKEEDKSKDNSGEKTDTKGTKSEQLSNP
T5 sequence (O76083 whole entry): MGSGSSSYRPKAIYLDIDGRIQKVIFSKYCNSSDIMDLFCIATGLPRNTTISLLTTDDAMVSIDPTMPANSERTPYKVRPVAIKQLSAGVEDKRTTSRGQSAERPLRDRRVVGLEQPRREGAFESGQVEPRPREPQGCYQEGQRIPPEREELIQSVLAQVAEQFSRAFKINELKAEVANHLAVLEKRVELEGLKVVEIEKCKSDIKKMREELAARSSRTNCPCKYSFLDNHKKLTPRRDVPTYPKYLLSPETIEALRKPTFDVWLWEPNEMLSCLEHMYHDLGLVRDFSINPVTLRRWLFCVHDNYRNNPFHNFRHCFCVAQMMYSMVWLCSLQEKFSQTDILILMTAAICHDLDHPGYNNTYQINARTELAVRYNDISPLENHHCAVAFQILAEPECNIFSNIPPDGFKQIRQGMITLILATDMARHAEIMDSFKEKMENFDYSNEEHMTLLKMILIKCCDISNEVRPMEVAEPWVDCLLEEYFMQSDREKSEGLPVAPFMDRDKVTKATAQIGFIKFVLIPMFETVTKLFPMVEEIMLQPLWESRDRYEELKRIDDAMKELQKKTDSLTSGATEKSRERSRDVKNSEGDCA
Sequence of Histone deacetylase 3 (O15379 whole entry, the tested form may be a part): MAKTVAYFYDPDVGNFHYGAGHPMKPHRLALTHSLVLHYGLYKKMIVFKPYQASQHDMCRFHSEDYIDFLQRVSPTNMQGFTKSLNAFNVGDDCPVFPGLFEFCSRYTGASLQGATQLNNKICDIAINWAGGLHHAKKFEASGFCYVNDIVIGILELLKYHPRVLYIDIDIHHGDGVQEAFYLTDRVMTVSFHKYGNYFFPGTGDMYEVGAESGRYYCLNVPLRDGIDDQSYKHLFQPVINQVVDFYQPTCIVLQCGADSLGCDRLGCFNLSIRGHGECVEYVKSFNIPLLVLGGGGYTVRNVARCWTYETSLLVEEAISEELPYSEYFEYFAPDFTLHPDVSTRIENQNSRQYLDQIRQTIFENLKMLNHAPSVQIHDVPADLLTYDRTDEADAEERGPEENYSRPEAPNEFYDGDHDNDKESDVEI

In the case of `COc1cccc2c1C(=O)c1c(O)c3c(c(O)c1C2=O)C[C@@](O)(C(C)=O)C[C@@H]3O[C@H]1C[C@H](N)[C@H](O)[C@H](C)O1` [DAUNORUBICIN], the IC50 at Histone deacetylase 1 [1] worked out at 47 nM; with DU-145 [2], 130 nM; in assay [3], 20 nM; against Histone deacetylase 8 [4] it was 220 nM.

On to `COc1ccc(CC(=O)N[C@@H](CCC(=O)O)C(=O)NCc2ccccc2)cc1`, for which the IC50 is 83700 nM in assay [5] and 3800 nM at Histone deacetylase 8 [6].

On to `Cn1c(CCCC(=O)O)nc2cc(N(CCCl)CCCl)ccc21` [BENDAMUSTINE], for which the IC50 on Histone deacetylase 4 was 10 nM; at Histone deacetylase 2 it was 10 nM; in assay [7], 2200 nM; at Histone deacetylase 5 it was 10 nM; at Histone deacetylase 1 [1], 10 nM; against Histone deacetylase 3, 10 nM. Also, in [3], the IC50 came to 10 nM.

Consider `CCCc1nn(C)c2c(=O)[nH]c(-c3cc(CC4CC(C(=O)NO)C4)ccc3OCC)nc12` (stereo not given), for which the IC50 was 60 nM in assay [8], 310 nM on Histone deacetylase 1 [9], 81 nM in assay [10] and > 10000 nM in [11].

As to `CCN1CCN(c2cc(Nc3ncc(C(=O)Nc4ccccc4N)s3)ncn2)CC1`, the IC50 is 150 nM at Histone deacetylase 1 [12], 5790 nM in the assay with DU-145 [13], 16500 nM in the assay with HepG2 and 2560 nM in the assay with K562.

For the molecule `O=C(CCCCNC(=S)Nc1ccc(/C=C/C(=O)c2cccnc2)cc1)NO`, the IC50 in assay [14] was 13300 nM; at Histone deacetylase 1 [1], 3380 nM; in [3], 4100 nM. The EC50 in the assay on Cortical neurone is 3700 nM.

As to `CCN1CCN(c2cc(Nc3ncc(C(=O)Nc4ccc(F)cc4N)s3)ncn2)CC1`, the IC50 on Histone deacetylase 1 [12] came out at 810 nM; with DU-145 [13], 600 nM; in the assay on HepG2, 10400 nM; with K562, 2260 nM.

Regarding `CCCc1nn(C)c2c(=O)[nH]c(-c3cc(Cc4ccc(C(=O)Nc5ccccc5N)cc4)ccc3OCC)nc12`, the IC50 on Histone deacetylase 2 was > 20000 nM; against Histone deacetylase 1 [1], 673 nM; in assay [15] it was 114 nM; in assay [3], > 20000 nM.

Take `C[C@@H](c1nc2c(cnn2C2CCCC2)c(=O)[nH]1)N1CC(Cc2ccc(C(=O)Nc3ccccc3N)cc2)C1`: the IC50 in assay [16] was 57 nM; at Histone deacetylase 2, 545 nM; against Histone deacetylase 1 [1], 99 nM; in assay [17] it was > 10000 nM; in [3], > 10000 nM.

`O=C(NO)c1ccc(/C=N/NC(=O)c2cc(N3CCOCC3)nc(-c3cccc4[nH]ncc34)n2)cc1`: the IC50 was 8.34 nM in [18] and 34.6 nM in assay [3].

As a reminder, the IC50 is the concentration that gives 50% inhibition. As usually defined, the EC50 is the concentration that produces a half-maximal response.
